Experimental data: ChEMBL document CHEMBL1201862, “PubChem BioAssay data set” (2004)
Calls of active or inactive are those of the source.

Tests used:
[1] = viability loss in HepG2 hepatoma cells – cell-based, ATP luminescence, cherry-pick, activator set 2, cytotoxicity control, dose response (AID 1053143); assay type: functional
[2] = viability loss in THP-1 monocytes – THP-1 cells, cytotoxicity control for Vif-APOBEC3G degradation inhibitor project, dose response (AID 1117359); assay type: functional; conditions: THP-1
[3] = biological target: T1, Long-chain-fatty-acid--AMP ligase FadD28 (Mycobacterium tuberculosis, UniProt P9WQ59); experiment: Fluorescence polarization aasay to screen for inhibitors that compete for the binding of FadD28 to a bisubstrate Measured in Biochemical System Using Plate Reader - 2147-01_Inhibitor_Dose_CherryPick_Activity.; assay type: functional, Mycobacterium tuberculosis H37Rv
T1 sequence (P9WQ59 whole entry): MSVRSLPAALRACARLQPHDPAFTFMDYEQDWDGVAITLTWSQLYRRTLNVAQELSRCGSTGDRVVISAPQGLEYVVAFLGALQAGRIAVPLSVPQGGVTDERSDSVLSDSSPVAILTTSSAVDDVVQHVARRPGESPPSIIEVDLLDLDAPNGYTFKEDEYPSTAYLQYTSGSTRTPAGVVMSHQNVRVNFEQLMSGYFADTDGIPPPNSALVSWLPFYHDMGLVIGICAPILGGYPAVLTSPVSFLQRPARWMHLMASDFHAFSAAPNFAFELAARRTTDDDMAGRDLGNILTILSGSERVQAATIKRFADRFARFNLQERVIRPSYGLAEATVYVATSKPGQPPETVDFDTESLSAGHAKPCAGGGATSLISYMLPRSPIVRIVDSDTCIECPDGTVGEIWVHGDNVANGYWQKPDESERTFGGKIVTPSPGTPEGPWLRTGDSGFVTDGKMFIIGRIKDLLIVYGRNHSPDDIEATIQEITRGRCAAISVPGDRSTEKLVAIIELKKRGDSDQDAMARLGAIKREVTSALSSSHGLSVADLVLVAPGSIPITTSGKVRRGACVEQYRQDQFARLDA

[4] = P. falciparum Dd2 growth inhibitors, dose response, SYBR Green, cherry-picked samples (AID 1159567); assay type: functional, cell-based
[5] = growth inhibition of yeast DHODH-expressing 3D7 parasites – SYBR Green, dry powder samples, dose response (AID 1159570); assay type: functional, cell-based;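 also: parasite growth measured after 72 hours of compound exposure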
[6] = toxicity to human HepG2 hepatoma cells – cell-based, plate reader, dry powder samples, cytotoxicity control, dose response (AID 1159569); assay type: functional;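 also: inhibitor potency with signal falling toward the positive control level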
[7] = growth inhibition of PfATP4-mutant resistant parasites – NITD609-resistant line, SYBR Green, dry powder, dose response (AID 1159571); assay type: functional, cell-based;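 also: parasites synchronized at ring stage by sorbitol before testing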
[8] = Dd2 malaria parasite growth inhibition potency – SYBR Green, dry powder samples, dose response (AID 1159566); assay type: functional, cell-based;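 also: potency for growth inhibition with lower SYBR green DNA signal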
[9] = T. cruzi growth inhibition in host cells, dose response, cell-based, plate reader, dry powder, set 2 (AID 652275); assay type: functional
[10] = toxicity to human hepatoma HepG2 cells – cell-based, cherry-picked samples, cytotoxicity control, dose response (AID 1159577); assay type: functional
[11] = viability loss in human Jurkat cells – cell-based, luminescence, cytotoxicity control for P. falciparum gametocyte viability project, dose response (AID 1117277); assay type: functional;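 also: potency reflects loss of cellular ATP meaning fewer viable cells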
[12] = viability inhibitors of stage V gametocytes – luminescence, dose response (AID 1117278); assay type: functional, cell-based;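 also: gametocytes exposed to compound for 24 hours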
[13] = biological target: T2, Heat shock factor protein 1 (Mus musculus, UniProt P38532); experiment: decrease of HSF1-responsive luciferase luminescence – cell-based, NIH3T3, dose retest, confirmation (AID 2382); assay type: functional;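 also: NIH3T3 fibroblasts with HSF1-driven luciferase reporter stressed by proteasome inhibitor MG132; luminescence from HSF1-driven luciferase expression after 8 hours of MG132 stress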
T2 sequence (P38532 whole entry): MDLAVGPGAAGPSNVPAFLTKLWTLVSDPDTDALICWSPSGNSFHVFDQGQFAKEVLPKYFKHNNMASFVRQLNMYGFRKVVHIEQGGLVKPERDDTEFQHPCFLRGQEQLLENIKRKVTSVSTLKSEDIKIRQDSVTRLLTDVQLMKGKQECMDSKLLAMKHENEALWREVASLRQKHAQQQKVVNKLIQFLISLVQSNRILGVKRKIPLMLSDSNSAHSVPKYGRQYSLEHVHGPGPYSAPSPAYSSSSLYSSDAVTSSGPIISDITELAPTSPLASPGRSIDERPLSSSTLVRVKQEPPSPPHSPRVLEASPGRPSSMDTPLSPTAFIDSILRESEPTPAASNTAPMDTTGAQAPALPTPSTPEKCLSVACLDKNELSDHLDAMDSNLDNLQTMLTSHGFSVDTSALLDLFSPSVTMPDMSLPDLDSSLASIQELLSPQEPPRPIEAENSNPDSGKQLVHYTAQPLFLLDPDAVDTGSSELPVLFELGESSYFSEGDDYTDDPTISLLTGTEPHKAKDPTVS

[14] = toxicity toward HepG2 liver cells – cell-based, plate reader, cherry-pick, antagonist series, cytotoxicity control, dose response (AID 743416); assay type: functional
[15] = blockade of melanocortin 4 receptor signaling – cell-based, plate reader, cherry pick, counter-screen for LGR2 antagonist project, dose response (AID 743444); assay type: functional;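 also: transfected HEK 293 cells stimulated with alpha-MSH peptide; potency of inhibitors of the alpha-MSH evoked signal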
[16] = A549 cell cytotoxicity, dose response, cytotoxicity control, plate reader, cherry-pick, antagonist series (AID 743412); assay type: functional, cell-based
[17] = blockers of bursicon-stimulated LGR2 cAMP reporter – cell-based, HEK293, CRE-luciferase reporter, cherry pick, set 2, dose response (AID 743343); assay type: functional;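 also: transfected cells were stimulated with diluted bursicon conditioned medium after compound addition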
[18] = NIH3T3 cell viability loss – ATP luminescence, mouse fibroblasts, counter-screen, dose response (AID 2010); assay type: functional, cell-based;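 also: cells exposed to compound for about 90 hours before reading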
Cytochrome P450 2C19 = Cytochrome P450 2C19 (Homo sapiens, UniProt P33261); experiment: Cytochrome panel assay with activity outcomes. Panel member name: p450-cyp2c19 Compounds with AC50 equal or less than 10 uM are considered active; assay type: functional; conditions: read-out: AC50
INS1 = experiment: INS-1E survival protection against cytokine death – cell-based, luminescence, retest, dose response (AID 449756); assay type: functional; conditions: Rattus norvegicus;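 also: cell death triggered by IL-1 beta plus TNF-alpha plus IFN-gamma mixture; protective hits raise ATP signal compared with cytokine alone wells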
[19] = Trypanosoma cruzi growth suppression in host cells – NIH3T3 host cells, beta-gal luminescence, confirmation (AID 2044); assay type: functional, cell-based;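 also: intracellular parasites grown in NIH/3T3 mouse fibroblasts as host cells; luminescent beta-galactosidase reporter signal from transgenic T. cruzi replicating inside host cells; inhibitors lower the luminescence signal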
[20] = viability of HCT116 lacking mutant beta-catenin – cell-based, human colon tumor, dose response (AID 1045); assay type: functional;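 also: HCT116 colon tumor cells with beta catenin knocked out; cells exposed to compound for 60 hours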
[21] = viability of PTEN-deleted HCT116 cells – cell-based, HCT116 PTEN knockout, dose response (AID 1047); assay type: functional;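 also: HCT116 colon tumor cells with PTEN knocked out; cells exposed to compound for 60 hours before readout; potency for loss of cell viability measured by luminescence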

Sequence of Cytochrome P450 2C19 (P33261 whole entry): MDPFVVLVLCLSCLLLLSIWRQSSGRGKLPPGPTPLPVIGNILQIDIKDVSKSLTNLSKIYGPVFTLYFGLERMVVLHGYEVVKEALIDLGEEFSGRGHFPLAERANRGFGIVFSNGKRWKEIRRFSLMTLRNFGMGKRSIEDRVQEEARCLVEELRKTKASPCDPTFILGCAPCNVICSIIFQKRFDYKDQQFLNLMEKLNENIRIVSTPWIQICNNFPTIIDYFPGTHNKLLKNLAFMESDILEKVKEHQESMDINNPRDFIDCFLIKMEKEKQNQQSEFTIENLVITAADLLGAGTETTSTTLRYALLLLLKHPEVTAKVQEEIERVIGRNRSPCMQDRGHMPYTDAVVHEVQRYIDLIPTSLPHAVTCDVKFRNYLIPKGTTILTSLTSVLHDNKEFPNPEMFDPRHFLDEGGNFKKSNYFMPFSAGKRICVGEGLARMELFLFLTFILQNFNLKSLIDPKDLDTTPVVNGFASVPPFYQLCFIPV

Cc1ccc(NC(=O)Nc2ccc(F)c(Cl)c2)cc1
AC50 [1]: 33.1 µM (active)

O=C1CC2=CC=CC(=O)C(=O)C2=C(O)O1
CC50 [2]: > 40 µM (active)

COCCn1c(C)cc(/C=N/NC(=O)c2cc3ccccc3cc2O)c1C
AC50 [3]: 17.4 µM (active)

COc1ccc(C#Cc2ccc3c(c2)[C@H]2[C@H](CCN2Cc2nccs2)[C@@H](CO)N3)cc1
AC50 [4]: 1.9 µM (active) | AC50 [5]: 3.44 µM (active) | AC50 [6]: 74.7 µM (active) | AC50 [7]: 2.52 µM (active) | AC50 [8]: 2.06 µM (active)

C[C@@H]1CCCCO[C@H](CN(C)Cc2ccc(Cl)c(Cl)c2)[C@@H](C)CN([C@H](C)CO)C(=O)c2cc(N(C)C)ccc2O1
AC50 [9]: 2.73 µM (active)

OC[C@@H]1[C@H](c2ccc(C#Cc3ccccc3F)cc2)[C@H]2CN(Cc3cncnc3)CCCCN12
AC50 [4]: 3.54 µM (active) | AC50 [10]: 10.8 µM (active)

O=C1CC(=O)Nc2cc(S(=O)(=O)N3CCN(c4cccc(C(F)(F)F)c4)CC3)ccc2N1
IC50 [11]: > 83.3 µM (inactive) | IC50 [12]: > 109 µM (inactive)

COc1ccc(OC)c(C(=O)c2ccc(C(=O)O)cc2)c1
IC50 [11]: > 83.3 µM (inactive) | EC50 [13]: > 195 µM (not active) | IC50 [12]: > 109 µM (inactive)

N#Cc1cccc(-c2ccc([C@@H]3[C@H](CO)N4CCCCN(C(=O)Nc5cccc(F)c5)C[C@@H]34)cc2)c1
AC50 [4]: 2.18 µM (active) | AC50 [14]: > 24 µM (inactive) | AC50 [15]: 47.2 µM (active) | AC50 [16]: 16.7 µM (active) | AC50 [10]: 7.5 µM (active) | AC50 [17]: 40.6 µM (active)

C[C@H](CO)N1C[C@H](C)[C@@H](CN(C)C(=O)Nc2ccc3c(c2)OCO3)Oc2ccc(NC(=O)Nc3ccc(C(F)(F)F)cc3)cc2CC1=O
AC50 [4]: 0.748 µM (active) | AC50 [5]: 0.406 µM (active) | AC50 [6]: > 100 µM (inactive) | AC50 [7]: 0.238 µM (active) | AC50 [8]: 0.276 µM (active)

O=C(/C(=C/c1ccc(Cl)cc1)c1nc2ccccc2[nH]1)c1ccccc1
EC50 [18]: > 60 µM (not active) | AC50 (Cytochrome P450 2C19): 1.58 µM (inconclusive) | AC50 [1]: 7.94 µM (active) | AC50 (INS1): 2.98 µM (active) | EC50 [19]: 0.824 µM (active) | EC50 [20]: 3.11 µM (active) | EC50 [21]: 3.64 µM (active)
